Blank lines part the entries; values can stand above or below the compound they belong to.
How the values were obtained:
Assay type in all cases: cell-based
[1] = biological target: T1, endothelial nitric oxide synthase (eNOS) (Homo sapiens, UniProt P29474); experiment: NO (DAF-FM) and ROS production in HUVECs at […] L-NAME
T1 construct: gene NOS3
T1 sequence (P29474 2-1203): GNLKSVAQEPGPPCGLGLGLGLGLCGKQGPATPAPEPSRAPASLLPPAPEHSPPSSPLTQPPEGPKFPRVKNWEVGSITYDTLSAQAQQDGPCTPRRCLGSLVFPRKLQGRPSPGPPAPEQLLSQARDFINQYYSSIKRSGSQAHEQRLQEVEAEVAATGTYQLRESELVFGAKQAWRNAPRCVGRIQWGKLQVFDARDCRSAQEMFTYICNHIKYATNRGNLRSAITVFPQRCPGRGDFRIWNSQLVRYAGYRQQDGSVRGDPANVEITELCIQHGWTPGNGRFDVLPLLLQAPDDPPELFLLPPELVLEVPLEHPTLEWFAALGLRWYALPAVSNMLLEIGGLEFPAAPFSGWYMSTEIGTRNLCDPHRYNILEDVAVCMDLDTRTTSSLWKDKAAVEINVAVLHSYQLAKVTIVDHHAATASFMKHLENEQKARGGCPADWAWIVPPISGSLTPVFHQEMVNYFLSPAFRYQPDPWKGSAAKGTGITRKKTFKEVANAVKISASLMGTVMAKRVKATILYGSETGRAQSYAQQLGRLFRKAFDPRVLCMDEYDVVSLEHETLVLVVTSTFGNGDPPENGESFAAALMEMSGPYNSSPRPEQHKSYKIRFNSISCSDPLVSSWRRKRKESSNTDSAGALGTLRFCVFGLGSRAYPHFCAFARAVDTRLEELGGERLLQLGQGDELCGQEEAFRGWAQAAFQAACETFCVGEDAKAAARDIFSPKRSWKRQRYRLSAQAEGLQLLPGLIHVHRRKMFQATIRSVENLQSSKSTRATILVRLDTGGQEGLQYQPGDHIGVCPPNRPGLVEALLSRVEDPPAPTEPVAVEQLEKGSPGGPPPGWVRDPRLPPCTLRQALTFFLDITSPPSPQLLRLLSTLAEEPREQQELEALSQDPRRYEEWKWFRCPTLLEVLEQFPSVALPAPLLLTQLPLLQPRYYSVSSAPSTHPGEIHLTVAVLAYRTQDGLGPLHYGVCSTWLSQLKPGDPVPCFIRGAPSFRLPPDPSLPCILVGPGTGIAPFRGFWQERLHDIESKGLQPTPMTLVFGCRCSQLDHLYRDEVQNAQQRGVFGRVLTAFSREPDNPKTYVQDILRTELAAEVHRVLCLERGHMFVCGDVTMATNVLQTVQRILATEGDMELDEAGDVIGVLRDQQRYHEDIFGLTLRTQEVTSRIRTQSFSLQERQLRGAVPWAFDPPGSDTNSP

[2] = biological target: T1, endothelial nitric oxide synthase (eNOS); experiment: conversion of deuterated L-arginine to L-citrulline in HUVECs by MS; […] L-arginine rescues NO production
[3] = biological target: T1, endothelial nitric oxide synthase (eNOS); experiment: NO production (DAF-FM) in HUVECs with L-arginine competition; deuterated L-arginine to L-citrulline conversion by MS

Structure (SMILES): COC(=O)[C@@H](N)CCCNC(N)=N[N+](=O)[O-] [L-NAME]
NO (DAF-FM) and ROS production in HUVECs at 1 mM L-NAME [1]: NO production is indeed eNOS-dependent, as proven by the eNOS inhibitor L-NAME, whose presence strongly abolishes NO production

Structure (SMILES): N=C(N)NCCC[C@H](N)C(=O)O [L-arginine]
conversion of deuterated L-arginine to L-citrulline in HUVECs by MS; 20 mM L-arg [2]: we measured the rate of L-arginine’s conversion to L-citrulline by using stable isotope labeling and mass spectrometry

EC50 [3]: 2500 ± 300 nM
Structure (SMILES): C[N+](C)(C)[O-] [Trimethylamine N-oxide]

— paper PMC12108457, “Trimethylamine N-Oxide (TMAO) Acts as Inhibitor of Endothelial Nitric Oxide Synthase (eNOS) and Hampers NO Production and Acetylcholine-Mediated Vasorelaxation in Rat Aortas” (Antioxidants, 2025)
